# In article PMC12264554, “Application of preclinical absorption, distribution, metabolism, elimination in vitro techniques for the characterization and compound library optimization of novel antibiotic gallium salophen” (Drug Metabolism and Disposition, 2025):
# Tests used:
# [1] = calculated B/P; ref (Cao et al., 2023); cited from earlier work
# HasA = HasA (Pseudomonas aeruginosa, UniProt G3XD33); experiment: Kd determination by fluorescence quenching of apo-HasAp; details: read-out: HasA Kd; apo-HasAp 1 μM, 20 mM sodium phosphate pH 7.4, 25 °C, one-site binding fit
# Chain of HasA (G3XD33 entry or part of it): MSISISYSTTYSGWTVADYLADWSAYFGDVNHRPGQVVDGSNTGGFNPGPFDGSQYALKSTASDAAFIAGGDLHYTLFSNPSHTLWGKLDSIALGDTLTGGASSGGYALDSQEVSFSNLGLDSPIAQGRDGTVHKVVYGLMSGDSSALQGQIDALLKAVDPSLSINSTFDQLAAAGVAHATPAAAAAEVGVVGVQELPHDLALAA
# Experimental: Wild-type, full-length HasAp was prepared from freshly transformed Escherichia coli BL21(DE3) competent cells as previously described in 4 L of M9 media. Cell pellets were resuspended and lysed with an LM-20 microfluidizer at 18,000 psi. Lysate was clarified by centrifugation and applied to a Q-Sepharose column. HasAp was eluted over a gradient from 20 to 600 mM NaCl in 20 mM Tris-HCl (pH 7.5), and desired fractions determined by SDS-PAGE were pooled. Apo-HasAp was further purified on a Butyl Sepharose Fast Flow column equilibrated with 50 mM sodium phosphate buffer with 0.7 M ammonium sulfate (pH 7.0). Holo-HasAp and other proteins eluted within 2–3 bed volumes of 50 mM sodium phosphate containing 0.5 M ammonium sulfate. Apo-HasAp was then eluted with a linear gradient of sodium phosphate buffer (50–20 mM) containing ammonium sulfate (0.5–0 M). Fractions were analyzed again by SDS-PAGE, and the apo-HasAp was pooled, concentrated (Amicon stirred cell with Ultracel 10 kDa filter), and exchanged into 20 mM sodium phosphate buffer.
# Binding affinities were determined using a BioTek Synergy H1 microplate reader in a black 96-well plate. Compounds were solvated in H2O in serial dilutions (100–0.39 μM). One micromolar solution of apo-HasAp 20 mM sodium phosphate buffer (pH 7.4, 25 °C) was titrated into the ligand of interest. Emission spectra were recorded (300–500 nm) after excitation at 280 nm. The decrease in maximum emission was plotted against the ligand concentration (accounting for dilution) and fit to one-site binding using GraphPad Prism v10.
# [2] = Experimental LogP by reverse-phase HPLC method; format: physicochemical; details: extrapolated log kw
# From the text: LogP was experimentally determined using previously published reverse-phase high-performance liquid chromatography method, and this workflow was adapted using instrumentation described in the previous LC-MS/MS analysis section ([Coutinho et al, 2023]). Briefly, analogs were eluted using isocratic flow with an increasing percentage of organic solvent from 55% to 90% in increments of 5%. The change in the log of the retention factor, log k, was plotted against the fraction of organic solvent. This allowed for extrapolation to the y-intercept, which is when the fraction of organic in the system is zero, or log kw. The same workflow was applied to known compounds with a published logP value to establish a relationship between logP and log kw. This ratio was used to calculate the experimental logP from the log kw of the test compounds. The in silico prediction of logP values was obtained using an online calculator by Molinspiration Cheminformatics (molinspiration.com).
# Caco-2 cells = experiment: Caco-2 permeability screening; format: in vitro ADME; details: 20 μM, 30 and 60 min, average ± SEM
# Experimental: (§1) Caco-2 cells were received from American Type Culture Collection and certified mycoplasma free. Cells were seeded on transwell plates (CoStar, growth area 0.33 cm^2/well, polycarbonate membrane, 0.33 μm pore size) between passage 20 and 27 and then analyzed between 21 and 25 days after wells were seeded to ensure enterocyte-like differentiation. Before assessing permeability, cells were washed once with Hank’s Balanced Salt Solution buffer, pH 7.4, and then incubated at 37 °C for 30 minutes. Transepithelial electrical resistance (TEER) was measured after equilibration before the experiment using an epithelial volt-ohmmeter (EVOM, World Precision Instruments), and cells were used if TEER > 250 Ω × cm^2. Cells were dosed to measure permeability from basolateral and apical sides at a concentration of 20 μM of test compound and 50 μM of Lucifer yellow. Lucifer yellow was used as a “zero permeability” marker to monitor the integrity of cell barrier. Samples were taken at 0 and 60 minutes from the donor side, and samples were taken at 30 and 60 minutes from the receiver side; media was replenished after the 30-minute sample was taken from both chambers. A calibration curve was prepared by serial dilution using the dosing solution in a 1:5 dilution. […] Samples were prepared for LC-MS/MS analysis by taking 100 μL of sample, adding 1 μM internal standard (GaSal-4 or GaSal-5), and crashing with 400 μL of methanol. Samples were centrifuged at 3000 rpm at 4 °C for 30 minutes, 200 μL of supernatant was transferred to a new plate, and 100 μL of water was added to each sample. Samples were vortexed and analyzed by LC-MS/MS as described earlier. […] To preliminarily evaluate organic cation transporter 1 (OCT1) or P-glycoprotein (P-gp)-dependent transport, transport studies were conducted with and without a 1 μM “inhibitor cocktail” alongside GaSal. […] The Papp for basolateral to apical, Papp apical to basolateral, and efflux ratio were reported for each compound. In order to calculate Papp, the concentration in the sampled time point was determined from the calibration curve and then converted to μg based on the volume of the chamber (0.2 mL for apical, 1.0 mL for basolateral). […] The calculation of Papp was determined using eq. […] Data are presented as the average ± SEM for each compound analyzed as n = 3 on 2 different days with 2 different cell line passages, for n = 6 total. GaSal is n = 3 on 3 different cell line passages since this was used as a test compound for the inhibition cocktail experiments.
# [3] = Caco-2 permeability screening; format: in vitro ADME; details: for Papp A→B / Papp B→A / efflux ratio at 20 µM: Caco-2, 20 μM; for Papp A→B / Papp B→A: 30 and 60 min, average ± SEM; for Papp A→B: read-out: Papp apical to basolateral; for Papp B→A: read-out: Papp basolateral to apical; for Papp: Caco-2, ranked by Papp against control drugs, read-out: Permeability ranking; for efflux ratio at 20 µM: human, read-out: Efflux ratio B to A/A to B
# Experimental: as §1
# [4] = RBC/PL partitioning equilibrium in whole blood; details: for K2EDTA KRBC/PL: pooled K2EDTA whole blood; for K2EDTA KRBC/PL / Heparin KRBC/PL: LC-MS/MS (ICP-MS for Ga^3+); for Heparin KRBC/PL: pooled sodium heparin whole blood
# Experimental: The mixtures were digested at 80 °C for 4 hours and further diluted to a concentration of 6% nitric acid. Gallium (Ga^71) in whole blood, PL, and RBC samples were quantified using an Agilent 7700x ICP-MS instrument (Agilent Technologies). Metal levels were detected using an Octopole Reaction System in He mode. Other ICP-MS parameters include an radio frequency power of 1500 W, on octupole radio frequency of 190 V, an octapole bias of –18 V, a helium gas flow of 4.3 mL/min, and an argon flow of 0.99 L/min. Samples were loaded through a 7700X peristaltic (with a speed of 0.1 rps) and a MicroMist nebulizer. A standard calibration curve was used to derive metal concentrations. The calibration standards from 0–250 ppb were prepared in 6% nitric acid using atomic absorption standards (Sigma). Data analysis and extraction were performed using Agilent’s MassHunter software version 5.1, specifically version D.01.01.
# All LC-MS/MS grade solvents were purchased from ThermoFisher. Ammonium bicarbonate was purchased from Sigma Aldrich. Analysis was performed on a Waters I-Class ultra-performance liquid chromatography system connected with a Waters Xevo TQ-XS mass spectrometer. Ten millimolar ammonium bicarbonate, pH 9.4 was used for mobile phase A, and 100% methanol was used for mobile phase B. The column flow rate was set at 0.400 mL/min. Chromatographic separation was performed with a BEH C18 (2.1 × 50 mm, 1.7 μm) column (Waters). […] The total run time was 4 minutes. The column temperature was set to 60 °C, and the autosampler temperature was set to 15 °C. Washing parameters were 800 μL of weak needle wash (acetonitrile [ACN]:Water/50:50) and 1000 μL of strong needle wash (methanol:ACN:2-propanol:formic acid/30:30:40:0.5) after every injection. Transitions used to monitor all drugs in the study are shown in Supplemental Table 1.
# Whole blood (either potassium EDTA [K2EDTA] or sodium heparin) was preincubated at 37 °C for 30 minutes before spiking with the analyte. GaSal-5 was made at a stock concentration of 100 μg/mL in water and then spiked at a high concentration (1 μg/mL) and low concentration (100 ng/mL) to determine whether equilibrium was concentration dependent. Samples were then aliquoted and stored in a water bath at 37 °C for 1, 2, 3, 4, and 8 hours or harvested immediately. PL was harvested from samples by centrifuging at 3000 rpm at 4 °C for 10 minutes. PL was transferred to a new tube and considered the PL fraction, whereas the rest of the matrix was considered the RBC fraction. Samples were then either analyzed by LC-MS/MS or ICP-MS. […] For selectivity lot analysis, whole blood from 3 male and 3 female donors were incubated for 2 hours and then analyzed with LC-MS/MS and ICP-MS at a single concentration of 1 μg/mL. Data are presented as average ± SEM, n = 3 per sample, per concentration. Significance was determined by using a paired t test for ICP-MS and LC-MS/MS data (the same sample, different method) or a 2-tailed Student’s t test for different anticoagulants.
Compound,KRBC/PL (B/P ratio) [1],Kd (HasA),logP [2],Papp A→B [3],Papp B→A [3],Papp [3],"K2EDTA KRBC/PL ([4]; 0.1 μg/mL, 2 hours)","K2EDTA KRBC/PL ([4]; 1 μg/mL, 2 hours)",other results
[Pb] [Lead],1.13,–,–,–,–,–,–,–,–
CC(=Nc1ccccc1N=Cc1ccc(OCCN(C)C)cc1O)c1ccccc1O.[Ga+3] [GaSal-7],–,5000 ± 900 nM,3.27,–,–,–,–,–,Papp apical to basolateral (Caco-2 cells): Undetected; Papp basolateral to apical (Caco-2 cells): Undetected
[As] [Arsenic],1.46,–,–,–,–,–,–,–,–
OCCCOc1ccc(/C=N/c2ccccc2/N=C/c2ccc(OCCCO)cc2O)c(O)c1.[Ga+3] [GaSal-11],–,570 ± 30 nM,4.04,< 0.01 ×10⁻⁶ cm/s,0.72 ± 0.12 ×10⁻⁶ cm/s,< 1.12 ×10⁻⁶ cm/s,0.05 ± 0.03,0.05 ± 0.02,"Heparin KRBC/PL ([4]; 0.1 μg/mL, 2 hours): 0.91 ± 0.19; Heparin KRBC/PL ([4]; 1 μg/mL, 2 hours): 1.15 ± 0.19"
CC(=Nc1ccccc1N=Cc1ccc(OCCC(=O)O)cc1O)c1ccccc1O.[Ga+3] [GaSal-9],–,330 ± 40 nM,3.03,< 0.01 ×10⁻⁶ cm/s,22.5 ± 5.63 ×10⁻⁶ cm/s,< 1.12 ×10⁻⁶ cm/s,820 ± 59,13745 ± 3800,efflux ratio at 20 µM [3]: > 22.5
"O=[N+]([O-])[O-].O=[N+]([O-])[O-].O=[N+]([O-])[O-].[Ga+3] [Ga^3+, gallium nitrate, reference compound]",–,–,–,–,–,–,–,–,"hemolysis [4]: > 5%; ICP-MS calculated KRBC/PL ([4]; 1 μg/mL, sodium heparin whole blood, 6 selectivity lots, 2 hours): 0.08 ± 0.01"
[Ni] [Nickel],0.50,–,–,–,–,–,–,–,–
CC(=Nc1ccccc1N=Cc1ccc(OCCN2CCOCC2)cc1O)c1ccccc1O.[Ga+3] [GaSal-8],–,5200 ± 400 nM,4.11,< 0.01 ×10⁻⁶ cm/s,5.75 ± 0.37 ×10⁻⁶ cm/s,< 1.12 ×10⁻⁶ cm/s,0.12 ± 0.09,0.10 ± 0.05,"efflux ratio at 20 µM [3]: > 5.75; Heparin KRBC/PL ([4]; 0.1 μg/mL, 2 hours): 33.8 ± 5.7; Heparin KRBC/PL ([4]; 1 μg/mL, 2 hours): 37.4 ± 2.6"
[Se] [Selenium],1.34,–,–,–,–,–,–,–,–
C[N+](C)(C)CCOc1ccc(/C=N/c2ccccc2/N=C/c2ccc(OCC[N+](C)(C)C)cc2O)c(O)c1.[Ga+3] [GaSal-1],–,2500 ± 1200 nM,–,–,–,–,–,–,–
